Legend:
[1] = system: Trypanosoma brucei brucei; assay: Antitrypanosomal activity against Trypanosoma brucei brucei Lister 427 at 18 hrs post dose by resazurin-based assay; format: functional; conditions: Lister 427, 18 h
[2] = system: Trypanosoma brucei brucei; assay: Antitrypanosomal activity against Trypanosoma brucei brucei Lister 427 at 70 hrs post dose by resazurin-based assay; format: functional
[3] = Cytotoxicity against human HepG2 cells after 48 hrs by Cell Titer Glo assay; format: cell-based; conditions: read-out: pTC50 (converted)
[4] = Cytotoxicity against human U2OS cells; format: cell-based
[5] = Selectivity index, ratio of CC50 for human U2OS cells to EC50 for Trypanosoma cruzi Y amastigote forms infected in human U2OS cells; format: toxicity, cell-based; conditions: read-out: Ratio CC50/EC50
Trypanosoma cruzi [6] = assay: Antitrypanosomal activity against Trypanosoma cruzi Y amastigote forms infected in human U2OS cells after 96 hrs by Draq5 staining-based high content analysis relative to control; format: functional
Trypanosoma cruzi [7] = assay: Antitrypanosomal activity against Trypanosoma cruzi Y amastigote forms infected in human U2OS cells after 96 hrs by Draq5 staining-based high content analysis; format: functional, cell-based

Row | EC50 [1] [µM] | pEC50 [2] | EC50 (Trypanosoma cruzi [7]) [µM] | SMILES | CC50 at 48 h [3] [µM] | CC50 [4] [µM] | selectivity ratio [5] | Emax (Trypanosoma cruzi [6]) [%]
1 | ≤ 1 | 6.16 to 9.17 |  | CN(C)Cc1ccc(-c2cc3c(-c4cnn(C)c4)ccnc3[nH]2)cc1 | 14.5 to 100 |  |  | 
2 |  |  | 4.5 | CC(C)(O)c1cc2c(-c3ccc(NC(=O)OCc4ccccc4)cc3)nccc2[nH]1 |  | 5.5 | 1.22 | 99.4
3 |  |  | 3.8 | CC(C)(O)c1cc2c(-c3ccc(-c4ccccc4)c(F)c3)nccc2[nH]1 |  | 9.1 | 2.4 | 75.7
4 | ≤ 1 | 6.16 to 9.17 |  | Cc1occc1-c1ncc(O[C@H](CN)c2ccccc2)cc1-c1c[nH]c2ncccc12 | 14.5 to 100 |  |  | 
5 |  |  | 20.1 | CC(C)(O)c1cc2c(-c3ccc4ccccc4c3)nccc2[nH]1 |  | 22.5 | 1.1 | 102
6 | ≤ 1 | 6.16 to 9.17 |  | O=C(Nc1ccc(-c2ccnc3[nH]ccc23)s1)C1(Cc2ccccc2)CCCNC1 (stereo not drawn) | 14.5 to 100 |  |  | 
7 | ≤ 1 | 6.16 to 9.17 |  | CN(C)Cc1ccc(-c2[nH]c3ncc(C#N)cc3c2-c2ccccc2)cc1 | 14.5 to 100 |  |  | 
8 |  |  | 3.6 | O=C(Cn1ccnc1[N+](=O)[O-])NCc1ccccc1 [BENZNIDAZOLE] |  |  | > 235 | 102

The remaining lines, values behind:

Row | SMILES | EC50 [1] [µM] | pEC50 [2] | EC50 (Trypanosoma cruzi [7]) [µM] | CC50 at 48 h [3] [µM] | CC50 [4] [µM] | selectivity ratio [5] | Emax (Trypanosoma cruzi [6]) [%]
9 | CS(=O)(=O)Nc1ccc(-c2c(-c3cccnc3)oc3ncnc(N)c23)cc1 | ≤ 1 | 6.16 to 9.17 |  | 14.5 to 100 |  |  | 
10 | CC(C)(C)c1ccc(-c2nccc3[nH]c(C(C)(C)O)cc23)cc1 |  |  | 17 |  | 35.3 | 1.3 | 110
11 | Cn1cc(-c2cnc3[nH]cc(-c4cccc(C#N)c4)c3c2)cn1 |  |  |  | 14.5 to 100 |  |  | 
12 | CC(C)(O)c1cc2c(-c3ccc(C#N)cc3)nccc2[nH]1 |  |  |  |  |  |  | 30.6
13 | CC(C)(O)c1cc2c(-c3ccccc3)nccc2[nH]1 |  |  | 6.5 |  | 22.2 | 3.4 | 106
14 | CC(C)(O)c1cc2c(-c3ccccc3CO)nccc2[nH]1 |  |  |  |  |  |  | 30.1
15 | CC(C)(O)c1cc2c(-c3ccsc3)nccc2[nH]1 |  |  | 106 |  | 199 | 1.6 | 72.8
16 | CC(C)(O)c1cc2c(Cl)nccc2[nH]1 |  |  | 70.8 |  | 15.5 | 0.2 | 106
17 | COc1ccccc1-c1nccc2[nH]c(C(C)(C)O)cc12 |  |  | 53.9 |  |  | > 3.7 | 56.6
18 | CC(C)(O)c1cc2c(-c3cc(C(F)(F)F)cc(C(F)(F)F)c3)nccc2[nH]1 |  |  | 24.3 |  | 59.8 | 2.5 | 72.2
19 | CC(C)(O)c1cc2c(-c3ccc(F)cc3)nccc2[nH]1 |  |  | 45.8 |  | 93.6 | 2 | 75.8
20 | CC(=O)c1ccc(-c2nccc3[nH]c(C(C)(C)O)cc23)cc1 |  |  | 137 |  |  | > 1.4 | 60.9
21 | Cc1cccc(-c2nccc3[nH]c(C(C)(C)O)cc23)c1 |  |  | 52.3 |  | 121 | 1.7 | 101
22 | Cc1ccc(-c2nccc3[nH]c(C(C)(C)O)cc23)cc1 |  |  | 34.6 |  | 38.5 | 1.1 | 86
23 | CC(C)(O)c1cc2c(-c3ccc(C(F)(F)F)cc3)nccc2[nH]1 |  |  | 40.9 |  | 72.3 | 1.5 | 102
24 | CC[C@@H]1COCCN1c1cc(-c2cc(OC)c3c(N)n[nH]c3c2)nc(N)n1 | ≤ 1 | 6.16 to 9.17 |  | 14.5 to 100 |  |  | 
25 | CCSc1ccc(-c2nccc3[nH]c(C(C)(C)O)cc23)cc1 |  |  | 9.6 |  | 17.2 | 1.8 | 107
26 | OCCn1c(CNCCCNc2nc3ccccc3[nH]2)cc2c(Cl)cc(Cl)cc21 | ≤ 1 | 6.16 to 9.17 |  | 14.5 to 100 |  |  | 
27 | CC(C)=Cc1cccc2c1/C(=N/Nc1ccc(S(N)(=O)=O)cc1)C(=O)N2 [GW396574X] | ≤ 1 | 6.16 to 9.17 |  | 14.5 to 100 |  |  | 
